Results: patent US20240300910A1, “NITROTHIAZOLE DERIVATIVE AND APPLICATION THEREOF” (CHENGDU BIOBEL BIOTECHNOLOGY CO., LTD., priority 2021, published 2024)
Converted amounts (≈) assume the structure as drawn. Where two headings read alike, the source gives them in different places.

What was measured:
[1] = system: Clostridium difficile ATCC BBA1870; test: In vitro MIC, agar dilution, Clostridium difficile ATCC BBA1870; format: cell-based; conditions: Clostridioides difficile, ATCCBBA1870, 48 h, read-out: MIC values, Clostridium difficile ATCC BBA1870
[2] = system: Clostridium difficile ATCC 700057; test: In vitro MIC, agar dilution, Clostridium difficile ATCC 700057; format: cell-based; conditions: Clostridioides difficile, read-out: MIC values, Clostridium difficile ATCC 700057
[3] = system: Clostridium difficile ATCC 630; test: In vitro MIC, agar dilution, Clostridium difficile ATCC 630; format: cell-based; conditions: Clostridioides difficile, read-out: MIC values, Clostridium difficile ATCC 630
ATCC BAA-835 = test: Selectivity on intestinal probiotics, MIC, agar dilution; format: cell-based; conditions: read-out: MIC value, ATCC BAA-835
Procedure: (§1) ATCC19435, Lactobacillus rhamnosus ATCC7469, Lactobacillus bulgaricus ATCC11842, and the test was performed using Brucella agar medium. The strains frozen at −80° C. were seeded in solid agar medium. The medium was placed in a 37° C. incubator and anaerobically cultivated for 24-48 h. […] For compound I-3 of the present invention, a high concentration (100× test concentration) of working solution was prepared and used on the same day, and 100% DMSO was used as the solvent. As for the preparation of each agar plate for each diluted concentration, 20 μl of high concentration working solution was mixed with 2 ml of melted Brucella agar with supplements (45-55° C.), and then added to a 6-well plate for solidification. 1% DMSO was used as growth control. On the day of the experiment, an appropriate amount of single bacterial colony was selected and suspended in physiological saline. A turbidity meter was used to adjust the turbidity of the bacterial solution to OD600=0.2, and thus the density was about 1×10^8 CFU/ml. 2 μl of such bacterial solution was directly seeded on a solid dilution agar plate of each compound. […] Then, all of the test plates were subjected to anaerobic cultivation at 35±2° C. for 48 h.

[4] = system: Bifidobacterium bifidum CGMCC NO.1.5091; test: as above; format: cell-based; conditions: read-out: MIC value, Bifidobacterium bifidum CGMCC NO.1.5091
Procedure: as §1

[5] = system: Enterococcus faecalis ATCC19433; test: as above; format: cell-based; conditions: read-out: MIC value, Enterococcus faecalis ATCC19433
Procedure: as §1

[6] = system: Lactobacillus acidophilus ATCC4356; test: as above; format: cell-based; conditions: read-out: MIC value, Lactobacillus acidophilus ATCC4356
Procedure: as §1

[7] = system: Lactobacillus bulgaricus ATCC11842; test: as above; format: cell-based; conditions: read-out: MIC value, Lactobacillus bulgaricus ATCC11842
Procedure: as §1

[8] = system: Lactobacillus rhamnosus ATCC7469; test: as above; format: cell-based; conditions: Lacticaseibacillus rhamnosus, read-out: MIC value, Lactobacillus rhamnosus ATCC7469
Procedure: as §1

[9] = system: Lactococcus lactis subsp. ATCC19435; test: as above; format: cell-based; conditions: read-out: MIC value, Lactococcus lactis subsp. ATCC19435
Procedure: as §1

[10] = system: Clostridium difficile spores (ATCC 630 strain); test: Treatment of Clostridium difficile infection in golden hamsters; format: in vivo; conditions: golden hamsters challenged with C. difficile spores; for time after drug withdrawal at which deaths occurred / began: drugs removed from the 21st day; for survival / mortality after drug withdrawal, observed until the 45th day: twice a day for 20 days (I-3 100 mg/kg, vancomycin 10 mg/kg, fidaxomicin 10 mg/kg, nitazoxanide 100 mg/kg)
Procedure: 60 of 5-week-old male golden hamsters, weighing 70-90 g, were purchased from Beijing Vital River Laboratory Animal Technology Co., Ltd. After one week of adaptive feeding, golden hamsters were randomly divided into six groups. The model group and four test groups were orally administrated 10 mg/kg clindamycin, while the blank group was given the same volume of normal saline, and this day was recorded as day −1. On day 0, the model group and the test groups were challenged with Clostridium difficile spores (ATCC 630 strain), and each hamster received 5E4 spores. The blank group was not treated. Starting from the first day, four test groups were administered 100 mg/kg of compound I-3 according to the present invention, 10 mg/kg of vancomycin, 10 mg/kg of fidaxomicin, and 100 mg/kg of nitazoxanide twice a day, respectively; the blank group and the model group were given equal amounts of normal saline for a total of 20 days. During this period, the changes in weight, the diarrhea, and the mortality of animals were observed. Starting from the 21st day, the drugs were removed, but the observation was continued until the 45th day.

[11] = ATCC700057, Brucella agar with supplements, anaerobic cultivation 48 h
[12] = ATCC630, Brucella agar with supplements, anaerobic cultivation 48 h
[13] = probiotic strain, Brucella agar, anaerobic cultivation 48 h
[14] = CGMCC1, probiotic strain, Brucella agar, anaerobic cultivation 48 h
[15] = ATCC19433, probiotic strain, Brucella agar, anaerobic cultivation 48 h
[16] = ATCC4356, probiotic strain, Brucella agar, anaerobic cultivation 48 h
[17] = ATCC11842, probiotic strain, Brucella agar, anaerobic cultivation 48 h
[18] = ATCC7469, probiotic strain, Brucella agar, anaerobic cultivation 48 h
[19] = ATCC19435, probiotic strain, Brucella agar, anaerobic cultivation 48 h

| Structure (SMILES) | MIC [1] [µg/mL] | MIC [2, 11] [µg/mL] | MIC [3, 12] [µg/mL] | MIC (ATCC BAA-835; [13]) [µg/mL] | MIC [4, 14] [µg/mL] | MIC [5, 15] [µg/mL] | MIC [6, 16] [µg/mL] | MIC [7, 17] [µg/mL] | MIC [8, 18] [µg/mL] | MIC [9, 19] [µg/mL] | survival / mortality after drug withdrawal, observed until the 45th day [10] | also measured |
| --- | --- | --- | --- | --- | --- | --- | --- | --- | --- | --- | --- | --- |
| CCCC(=O)Oc1ccccc1C(=O)Nc1ncc([N+](=O)[O-])s1 [Compound I-1] | 0.25 (≈ 0.746 µM) | 0.25 (≈ 0.746 µM) | 0.0625 (≈ 0.186 µM) | – | – | – | – | – | – | – | – | – |
| CCCCCCCC(=O)Oc1ccccc1C(=O)Nc1ncc([N+](=O)[O-])s1 [Compound I-2] | 0.25 (≈ 0.639 µM) | 0.25 (≈ 0.639 µM) | 0.0625 (≈ 0.16 µM) | – | – | – | – | – | – | – | – | – |
| CCCCCCCCCCCC(=O)Oc1ccccc1C(=O)Nc1ncc([N+](=O)[O-])s1 [Compound I-3] | 0.125 (≈ 0.279 µM) | 0.0625 (≈ 0.14 µM) | 0.0625 (≈ 0.14 µM) | 128 (≈ 286 µM) | 128 (≈ 286 µM) | 256 (≈ 572 µM) | > 256 | > 256 | > 256 | 256 (≈ 572 µM) | only one animal died | time after drug withdrawal at which deaths occurred / began [10]: 7 days |
| CCCCCCCCCCCCCC(=O)Oc1ccccc1C(=O)Nc1ncc([N+](=O)[O-])s1 [Compound I-4] | 0.25 (≈ 0.526 µM) | 0.125 (≈ 0.263 µM) | 0.0625 (≈ 0.131 µM) | – | – | – | – | – | – | – | – | – |
| CCc1c(Cl)c(O)c(Cl)c(O)c1C(=O)O[C@H]1[C@H](O)[C@H](OC)[C@H](OC/C2=C\C=C\C[C@H](O)/C(C)=C/[C@H](CC)[C@@H](O[C@@H]3OC(C)(C)[C@@H](OC(=O)C(C)C)[C@H](O)[C@@H]3O)/C(C)=C/C(C)=C/C[C@@H]([C@@H](C)O)OC2=O)O[C@@H]1C [fidaxomicin] | – | – | – | 1 (≈ 0.945 µM) | 4 (≈ 3.78 µM) | 1 (≈ 0.945 µM) | 128 (≈ 121 µM) | 128 (≈ 121 µM) | 16 (≈ 15.1 µM) | 64 (≈ 60.5 µM) | all of them died | time after drug withdrawal at which deaths occurred / began [10]: 15 days |
| CC(=O)Oc1ccccc1C(=O)Nc1ncc([N+](=O)[O-])s1 [nitazoxanide, Nitazoxanide] | 0.5 (≈ 1.63 µM) | 0.125 (≈ 0.407 µM) | 0.125 (≈ 0.407 µM) | 1 (≈ 3.25 µM) | 32 (≈ 104 µM) | 64 (≈ 208 µM) | 64 (≈ 208 µM) | 64 (≈ 208 µM) | 256 (≈ 833 µM) | 8 (≈ 26 µM) | four hamsters in the nitroxide group survived | – |
| CN[C@H](CC(C)C)C(=O)N[C@H]1C(=O)N[C@@H](CC(N)=O)C(=O)N[C@H]2C(=O)N[C@H]3C(=O)N[C@H](C(=O)N[C@H](C(=O)O)c4cc(O)cc(O)c4-c4cc3ccc4O)[C@H](O)c3ccc(c(Cl)c3)Oc3cc2cc(c3O[C@@H]2O[C@H](CO)[C@@H](O)[C@H](O)[C@H]2O[C@H]2C[C@](C)(N)[C@H](O)[C@H](C)O2)Oc2ccc(cc2Cl)[C@H]1O [vancomycin] | 1 (≈ 0.69 µM) | – | – | – | – | – | – | – | – | – | all hamsters in the vancomycin group died | MIC ([2]; ATCC700057, 48 h): 1 µg/mL (≈ 0.69 µM); MIC ([3]; ATCC630, 48 h): 2 µg/mL (≈ 1.38 µM); MIC (ATCC BAA-835; 48 h): 8 µg/mL (≈ 5.52 µM); MIC ([4]; CGMCC1, 48 h): 4 µg/mL (≈ 2.76 µM); MIC ([5]; ATCC19433, 48 h): 4 µg/mL (≈ 2.76 µM); MIC ([6]; ATCC4356, 48 h): 4 µg/mL (≈ 2.76 µM); MIC ([7]; ATCC11842, 48 h): > 256 µg/mL; MIC ([8]; ATCC7469, 48 h): 256 µg/mL (≈ 177 µM); MIC ([9]; ATCC19435, 48 h): 4 µg/mL (≈ 2.76 µM) |
